Results: patent US4691024A, “New mitomycin derivatives, preparation thereof and pharmaceutical compositions containing them” (priority 1984, dated 1987)
≈ marks a conversion by molar mass, not a printed value.

Legend:
[1] = tested on: Staphylococcus aureus ATCC 6538P; assay: Antibacterial activity, minimum growth inhibitory concentration by agar dilution method (SA); assay type: cell-based; details: ATCC6538P, pH 7, read-out: MIC, Staphylococcus aureus (SA)
Experimental: (§1) The various compounds of formula (I) of Examples 1-26 were tested for antibacterial activity against 6 microorganisms. […]. In this table, the following symbols are used:
SA: Staphylococcus aureus ATCC 6538P

[2] = Acute toxicity in mice (LD50, Behrens Kerber's method); details: mouse, in vivo, ip; ddy mice, single intraperitoneal administration, 14 days observation
Experimental: (§2) The antitumour-activity and toxicity of various compounds of formula (I) were investigated as indicated below.
Each animal of the test group consisting of 5 ddy mice was administered intraperitoneally once with a test compound. […] The LD50 was determined by Behrens Kerber's method.

Sarcoma 180 solid tumour = assay: Anti-tumour activity against Sarcoma 180 solid tumour in mice; assay type: in vivo; details: Mus musculus, sc, 168 h; Sarcoma 180 s.c. in ddy mice; into tail vein 24 hours after implantation; volume at 7 days; read-out: ED50 (dose reducing tumour volume to 50% of control)
Experimental: as §2
(1) Effect against Sarcoma 180 solid tumour cells
5×10^6 cells of Sarcoma 180 solid tumour were intraperitoneally implanted into ddy mice. 7 days later, ascites cells were sampled. The cells were washed once with a sterilized physiological solution of sodium chloride and were used to prepare a cell suspension containing 5×10^7 cells per ml. On each occasion, 0.1 ml of the cell suspension was subcutaneously implanted into the right arm pit of a male mouse (ddy strain; body weight 20±2 g). The test compound was dissolved in a physiological solution of sodium chloride with or without addition of Tween 80 and was administered into the tail vein of each mouse of a group consisting of 5 mice at a dose of 0.1-0.2 ml, 24 hours after the implantation of the tumour cells.
The anti-tumour activity was determined in the following manner. 7 days after the implantation, the major axis (a) and the minor axis (b) of the tumour were measured to calculate a value of "a×b^2 /2" which corresponds to the volume of the tumour. The anti-tumour activity was expressed by the ratio of the volume of the tumours (T) of the group of animals administered with the test compound to the corresponding volume of tumours (c) of the untreated animals.
(2) Determination of ED50
(The amount needed for reducing the volume of Sarcoma 180 solid tumours in mice to 50% on the basis of the corresponding volume of Sarcoma solid tumours in control untreated animals). On graph paper, T/C (the ratio of the volume of tumours of treated and control animals) was indicated by an arithmetic scale on the longitudinal axis and the administered amount of the test compound was indicated by a logarithmic scale on the lateral axis.
The relationship between the dose and T/C was shown by a straight line determined by the method of least squares, from which a dose corresponding to T/C of 0.5 was obtained.

[3] = Solubility in 0.03M phosphate buffered solution; assay type: physicochemical; details: 0.03m phosphate buffer, aqueous buffer, pH 7.0, 23° C.
Experimental: The solubilities of Compound 5, Compound 14 and Compound 20 in 0.03M phosphate buffered solution (pH 7.0, 23° C.) were determined.

[4] = tested on: Proteus vulgaris ATCC 6897; assay: Antibacterial activity, minimum growth inhibitory concentration by agar dilution method (PV); assay type: cell-based; details: ATCC6897, pH 7, read-out: MIC, Proteus vulgaris (PV)
Experimental: as §1
PV: Proteus vulgaris ATCC 6897

[5] = tested on: Klebsiella pneumoniae ATCC 10031; assay: microbe, parasite or virus in culture; assay type: cell-based; details: ATCC10031, pH 7, read-out: MIC, Klebsiella pneumoniae (KP)
Description: In this table, the following symbols are used:
KP: Klebsiella pneumoniae ATCC 10031

Bacillus subtilis 10707 = assay: Antibacterial activity, minimum growth inhibitory concentration by agar dilution method (BS); assay type: cell-based; details: Bacillus subtilis, 10707, pH 7, read-out: MIC, Bacillus subtilis (BS)
Experimental: as §1
BS: Bacillus subtilis 10707

[6] = tested on: Shigella sonnei ATCC 9290; assay: Antibacterial activity, minimum growth inhibitory concentration by agar dilution method (SS); assay type: cell-based; details: ATCC9290, pH 7, read-out: MIC, Shigella sonnei (SS)
Experimental: as §1
SS: Shigella sonnei ATCC 9290

peripheral leucocytes = assay: Effect on the peripheral leucocytes number in Sarcoma 180 bearing mice; assay type: in vivo; details: Sarcoma 180 bearing ddy mice; intraperitoneal 24 hours after implantation; blood 4 days later
Experimental: as §2
(4) Effect on the peripheral leucocytes number
Sarcoma 180 solid tumour cells (5×10^6) were subcutaneously implanted into the right arm pit of each mouse (body weight 20±2 g) of a group consisting of 5 male mice (ddy strain). 24 hours after implantation, a test compound was intraperitoneally administered to each animal. 4 days later, blood (each 0.02 ml) was collected from the suborbital plexus vein of each tumour-carrying animal. The collected sample of the blood was dispersed in 9.98 ml of Cell-Kit Seven solution. One drop of saponin solution was added to the sample to dissolve erythrocytes, and then a microcell counter was used to measure the number of leucocytes. On a graph paper, the number of leucocytes was indicated on the y-axis by an arithmetic scale and the dose of the test compound was indicated on the x-axis by a logarithmic scale. The relationship between the number of peripheral leucocytes and the dosage of the test compound was plotted and the dosage corresponding to 4000 peripheral leucocytes/mm^3 (about 1/2 the number of leucocytes of normal mice) was obtained. This value is denoted in Table 5 by WBC4000.

[7] = tested on: Streptococcus faecalis ATCC 10541; assay: Antibacterial activity, minimum growth inhibitory concentration by agar dilution method (SF); assay type: cell-based; details: Enterococcus faecalis, ATCC10541, pH 7, read-out: MIC, Streptococcus faecalis (SF)
Experimental: as §1
SF: Streptococcus faecalis ATCC 10541

[8] = Stability of the product as observed on isolation; assay type: physicochemical; details: in words; yield not constant
Experimental: To this solution is added dropwise 1 ml of methanol containing 23 mg of L-cysteine methyl ester hydrochloride and 50 μl of triethylamine. About 2 minutes later, the solvent is removed from the mixture by distillation under reduced pressure. Then, a similar treatment to that described in Example 1 is effected to obtain a small amount of Compound 16 as a grayish green powder. The yield of the resultant compound is not constant because of its unstability.
The yield is not constant because of unstability of the product.

SMILES	MIC [1] [µg/mL]	LD50 at 336 h [2] [mg/kg]	ED50 (Sarcoma 180 solid tumour) [mg/kg]	solubility [3] [mg/mL]	MIC [4] [µg/mL]	MIC [5] [µg/mL]	MIC (Bacillus subtilis 10707) [µg/mL]	MIC [6] [µg/mL]	WBC4000 (dosage corresponding to 4000 peripheral leucocytes/mm^3) (peripheral leucocytes) [mg/kg]	MIC [7] [µg/mL]	stability of the resultant compound [8]
CO[C@@]12[C@H](COC(N)=O)C3=C(C(=O)C(C)=C(NCCSSc4ccc(NC(C)=O)cc4)C3=O)N1C[C@@H]1N[C@@H]12 [Compound 5, 7-N-[2-(4-Acetamidophenyldithio)ethyl]mitomycin C]	0.02 (≈ 0.0357 µM)	30	8.5	0.052 (≈ 92.9 µM)	5 (≈ 8.93 µM)	0.16 (≈ 0.286 µM)	0.005 (≈ 0.00893 µM)	> 40	14.2	0.04 (≈ 0.0715 µM)	
CO[C@@]12[C@H](COC(N)=O)C3=C(C(=O)C(C)=C(NCCSSc4ccc(Cl)cc4)C3=O)N1C[C@@H]1N[C@@H]12 [Compound 11, 7-N-[2-(4-Chlorophenyldithio)ethyl]mitomycin C]	< 0.01	9	4.5		0.63 (≈ 1.17 µM)	0.63 (≈ 1.17 µM)	< 0.01	10 (≈ 18.6 µM)	> 10	0.04 (≈ 0.0745 µM)	
CO[C@@]12[C@H](COC(N)=O)C3=C(C(=O)C(C)=C(NCCSSc4ccc(F)cc4)C3=O)N1C[C@@H]1N[C@@H]12 [Compound 12, 7-N-[2-(4-Fluorophenyldithio)ethyl]mitomycin C]	< 0.02	6.8	3.5		0.63 (≈ 1.21 µM)	0.31 (≈ 0.595 µM)	< 0.02	20 (≈ 38.4 µM)	10.4	< 0.02	
CO[C@@]12[C@H](COC(N)=O)C3=C(C(=O)C(C)=C(NCCSSC[C@H](N)C(=O)O)C3=O)N1C[C@@H]1N[C@@H]12 [Compound 14, 7-N-[2-[(L-Cystein-S-yl)thio]ethyl]mitomycin C]	0.31 (≈ 0.604 µM)	30	15.4	> 100	5 (≈ 9.74 µM)	0.63 (≈ 1.23 µM)	0.16 (≈ 0.312 µM)	> 20	26.9	0.31 (≈ 0.604 µM)	
COC(=O)[C@@H](N)CSSCCNC1=C(C)C(=O)C2=C(C1=O)[C@@H](COC(N)=O)[C@@]1(OC)[C@H]3N[C@H]3CN21 [Compound 16, 7-N-[2-[(L-1-Methoxycarbonylcysteamin-S-yl)thio]ethyl]mitomycin C]	0.2 (≈ 0.379 µM)				1.6 (≈ 3.03 µM)	0.2 (≈ 0.379 µM)	< 0.02	50 (≈ 94.8 µM)		0.39 (≈ 0.739 µM)	unstability
CCOC(=O)[C@@H](N)CSSCCNC1=C(C)C(=O)C2=C(C1=O)[C@@H](COC(N)=O)[C@@]1(OC)[C@H]3N[C@H]3CN21 [Compound 17]	0.2 (≈ 0.369 µM)				1.6 (≈ 2.95 µM)	0.2 (≈ 0.369 µM)	< 0.02	25 (≈ 46.2 µM)		0.2 (≈ 0.369 µM)	unstability
CO[C@@]12[C@H](COC(N)=O)C3=C(C(=O)C(C)=C(NCCSSC(C)(C)[C@H](N)C(=O)O)C3=O)N1C[C@@H]1N[C@@H]12 [Compound 18, 7-N-[2-[(L-Pencillamin-S-yl)thio]ethyl]mitomycin C]	0.31 (≈ 0.572 µM)	30	9.9		0.31 (≈ 0.572 µM)	0.08 (≈ 0.148 µM)	0.08 (≈ 0.148 µM)	> 20	18.8	0.63 (≈ 1.16 µM)	
CO[C@@]12[C@H](COC(N)=O)C3=C(C(=O)C(C)=C(NCCSSC[C@H](N)C(=O)NCC(=O)O)C3=O)N1C[C@@H]1N[C@@H]12 [Compound 20, 7-N-[2-[(Glycino-L-cystein-S-71)thio]ethyl]mitomycin C]	0.31 (≈ 0.543 µM)	27	9.6	> 100	5 (≈ 8.76 µM)	0.63 (≈ 1.1 µM)	0.08 (≈ 0.14 µM)		20.5	0.63 (≈ 1.1 µM)	
